Test results as given in ChEMBL document CHEMBL3046533, “Molecular drug design, synthesis and pharmacophore site identification of spiroheterocyclic compounds: Trypanosoma crusi inhibiting studies” (Med Chem Res, 2013).

Experiments:
Trypanosoma cruzi [1] = test: Antitypanosomal activity against benznidazole-resistant trypomastigote stage of Trypanosoma cruzi Y assessed as parasite growth inhibition after 24 hr by hemacytometric analysis; format: functional, organism-based
Trypanosoma cruzi [2] = test: Antitypanosomal activity against benznidazole-resistant epimastigote stage of Trypanosoma cruzi Y assessed as parasite growth inhibition after 11 days by hemacytometric analysis; format: functional, organism-based
Trypanosoma cruzi [3] = test: Ratio of benznidazole IC50 to compound IC50 for benznidazole-resistant trypomastigote stage of Trypanosoma cruzi Y; format: functional
[4] = Cytotoxicity against Mus musculus BALB/c (mouse) splenocytes assessed as decrease in [3H]-thymidine incorporation after 24 hr by beta-radiation counting analysis; format: cell-based, Splenocyte; conditions: read-out: MNCC
Trypanosoma cruzi [5] = test: Ratio of nifurtimox IC50 to compound IC50 for benznidazole-resistant trypomastigote stage of Trypanosoma cruzi Y; format: functional
[6] = Cytotoxicity against Mus musculus BALB/c (mouse) splenocytes assessed as decrease in [3H]-thymidine incorporation at 1 to 100 ug/mL after 24 hr by beta-radiation counting analysis relative to untreated control; format: cell-based; conditions: splenocyte
[7] = Trypanosoma cruzi, Y, 24 h, read-out: IC50
[8] = Trypanosoma cruzi, Y, 264 h, read-out: IC50

Row | Compound | IC50 (Trypanosoma cruzi [1]; [7]) [µM] | IC50 (Trypanosoma cruzi [2]; [8]) [µM] | Ratio IC50 (Trypanosoma cruzi [3]) | MNTC at 24 h [4] | Ratio IC50 (Trypanosoma cruzi [5]) | IC50 (Trypanosoma cruzi [1]) | IC50 (Trypanosoma cruzi [2]) | Activity [6]
1 | COc1ccc(C2=NOC3(SCc4ccccc4C3=O)C2c2ccc(C)cc2)cc1 (stereo unspecified) | 1.9 | 62.5 | 3 | 10 µg/mL | 3 | – | – | –
2 | COc1ccc(C2C(c3ccc(C)cc3)=NOC23CSc2ccccc2C3=O)cc1 (stereo unspecified) | – | – | – | – | – | Not Active | Not Active | Non-toxic
3 | Cc1ccc(C2C(c3ccc([N+](=O)[O-])cc3)=NOC23SCc2ccccc2C3=O)cc1 (stereo unspecified) | 45.4 | 27.9 | – | 50 µg/mL | – | – | – | –
4 | O=C1c2ccccc2CSC12ON=C(c1ccc(Cl)cc1)C2c1ccc([N+](=O)[O-])cc1 (stereo unspecified) | 22 | 20.5 | – | 5 µg/mL | – | – | – | –
5 | COc1ccc(C2C(c3ccc(C)cc3)=NOC23SCc2ccccc2C3=O)cc1 (stereo unspecified) | 19 | 5.5 | – | 5 µg/mL | – | – | – | –
6 | Cc1ccc(C2=NOC3(CSc4ccccc4C3=O)C2c2ccccc2)cc1 (stereo unspecified) | – | – | – | – | – | Not Active | Not Active | Non-toxic
7 | CC1CS(=O)(=O)CCN1/N=C/c1ccc([N+](=O)[O-])o1 (stereo unspecified) [NIFURTIMOX] | – | – | – | 3.4 µM | – | – | – | –
8 | O=C(Cn1ccnc1[N+](=O)[O-])NCc1ccccc1 [BENZNIDAZOLE] | – | 6.6 | – | – | – | – | – | –
9 | COc1ccc(C2C(c3ccccc3)=NOC23CSc2ccccc2C3=O)cc1 (stereo unspecified) | – | – | – | – | – | Not Active | Not Active | Non-toxic
10 | Cc1ccc(C2=NOC3(SCc4ccccc4C3=O)C2c2ccc(C)cc2)cc1 (stereo unspecified) | 3.78 | 19.1 | 3 | 50 µg/mL | 3 | – | – | –
11 | Cc1ccc(C2=NOC3(CSc4ccccc4C3=O)C2c2ccc([N+](=O)[O-])cc2)cc1 (stereo unspecified) | – | – | – | – | – | Not Active | Not Active | Non-toxic
12 | COc1ccc(C2=NOC3(SCc4ccccc4C3=O)C2c2ccc(OC)cc2)cc1 (stereo unspecified) | 1.5 | 1.95 | – | 50 µg/mL | – | – | – | –
